A short description of data set [1]: Rat weight during seven days of daily treatment. Format: in vivo, rats. Conditions: Cpd-60 22.5 mg/kg, CI-994 5 mg/kg, vs vehicle-treated controls.
The target of data set [2] is class II HDAC enzyme subtypes. The data set can be described thus: In vitro HDAC deacetylase activity assay. It counts as biochemical. Conditions: read-out: IC50 class II HDAC enzyme subtypes; recombinant human HDACs.
The test system of another data set is brain glucose. To be noted: rats treated with fluoxetine; cited from earlier work.
For another data set, the system named is rats. To be noted: rats treated with fluoxetine; cited from earlier work.

The IC50 is the concentration at which inhibition is half-maximal. Consider `CC(=O)Nc1ccc(C(=O)Nc2ccccc2N)cc1` [CI-994], for which, in data set [1], the “effect on rat weight over seven days” value is listed as “did not significantly affect rat weight”. For the same compound, the IC50 in data set [2] is above 33 µM.

`CNCCC(Oc1ccc(C(F)(F)F)cc1)c1ccccc1` (stereo not shown) [fluoxetine]: the brain glucose changes in the data set with brain glucose was 4–14%. In addition, in the data set with rats, the “behavioral effects in the forced swim test” value is given as “antidepressant behavioral effects”.

The values are drawn from publication PMC3750730 (Neuroscience letters, 2013).
